Experiment in all cases: NCI anticancer screen, dose series, 48 h
In experiment [1] the test system is CAKI-1.
Experiment [2] deals with U-251.
The subject of experiment [3] is UACC-257.
Experiment [4] relates to KM12.
Experiment [5] deals with OVCAR-4.
Experiment [6] relates to EKVX.
The test system of experiment [7] is SK-MEL-5.
Experiment [8] deals with UO-31.
The subject of experiment [9] is SK-MEL-2.
In experiment [10] the test system is Malme-3M.
For experiment [11], the system named is SN12C.
The subject of experiment [12] is SK-MEL-28.
The test system of experiment [13] is SF-295.
The test system of experiment [14] is COLO 205.
Experiment [15] concerns HOP-62.
For experiment [16], the system named is A549.
Experiment [17] concerns OVCAR-3.
The subject of experiment [18] is NCI-H460.
For experiment [19], the system named is SF-539.
The subject of experiment [20] is LOX IMVI.

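Compound exposure: 48 hours, 5 concentrations, 96-well plates. GI50 is the concentration that inhibits growth by half.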 Calls of active or inactive are those of the source. No stated cut-off is given here; in the data, active = GI50 up to about 1.1 µM and inactive = higher.

Take `CCN(CC)CCCOC(=O)/C=C/c1c(C)[nH]c(=O)[nH]c1=O`: the GI50 in experiment [1] is > 625 µM (inactive); in experiment [2] it was > 625 µM (inactive); in experiment [3], > 625 µM (inactive); in experiment [4], > 625 µM (inactive); in [5], > 394 µM (inactive); in [6], > 625 µM (inactive). For the same compound, the GI50 in experiment [7] is > 625 µM (inactive); in experiment [8], > 625 µM (inactive); in experiment [9], > 394 µM (inactive); in experiment [10] it was > 625 µM (inactive); in [11] it was > 243 µM (inactive); in experiment [12], > 625 µM (inactive). Also, the GI50 was 525 µM (inactive) in [13]; > 625 µM (inactive) in experiment [14]; > 625 µM (inactive) in experiment [15]; > 625 µM (inactive) in experiment [16]; > 625 µM (inactive) in [17]; > 625 µM (inactive) in experiment [18]. Also, the GI50 in [19] and in experiment [20] was > 625 µM (inactive) throughout.

For the compound `CNC(=S)N/N=C(/C)CCC/C(C)=N/NC(=S)NC`, the GI50 in experiment [1] was > 100 µM (inactive); in experiment [2] it was > 42.1 µM (inactive); in experiment [3], > 100 µM (inactive); in [4] it was > 100 µM (inactive); in experiment [5], 1.69 µM (inactive); in [6], 0.778 µM (active). The GI50 in experiment [7] was 16.4 µM (inactive); in experiment [8], > 54.8 µM (inactive); in experiment [9], > 100 µM (inactive); in experiment [10], > 90.4 µM (inactive); in [11], > 74.5 µM (inactive); in [12] it was > 34.6 µM (inactive). For the same compound, the GI50 is > 100 µM (inactive) in [13]; 0.308 µM (active) in experiment [14]; > 100 µM (inactive) in experiment [15]; 5.45 µM (inactive) in experiment [16]; 0.411 µM (active) in experiment [17]; > 56.9 µM (inactive) in experiment [18]. Moreover, the values for the GI50 in experiment [19] and in experiment [20] were > 100 µM (inactive) and 1.8 µM (inactive), respectively.

In the case of `COc1cc(O)c(Cc2ccccc2O)c(O)c1C(=O)CCc1ccccc1` [UVARETIN], the GI50 is 5.24 µM (inactive) in experiment [1]; 5.12 µM (inactive) in [2]; 5.36 µM (inactive) in experiment [3]; 6.81 µM (inactive) in experiment [4]; 6.55 µM (inactive) in experiment [5]; 6.19 µM (inactive) in experiment [6]. In addition, the GI50 in experiment [7] is 3.69 µM (inactive); in experiment [8], 6.21 µM (inactive); in experiment [9], 4.71 µM (inactive); in [10], 4.89 µM (inactive); in experiment [11], 4.82 µM (inactive); in experiment [12], 7 µM (inactive). The GI50 in [13] is 5.9 µM (inactive); in experiment [14], 5.92 µM (inactive); in experiment [15], 2.47 µM (inactive); in experiment [16], 5.92 µM (inactive); in [17], 4.58 µM (inactive); in experiment [18] it was 4.49 µM (inactive). Also, the GI50 in [19] was 5.41 µM (inactive); in experiment [20], 6.05 µM (inactive).

These data come from ChEMBL document CHEMBL1201862, “PubChem BioAssay data set” (2004).
